The record followed here is ChEMBL document CHEMBL1123141, “N-[2-hydroxy-5-[2-(methylamino)ethyl]phenyl]methanesulfonamide. A potent agonist which releases intracellular calcium by activation of alpha 1-adrenoceptors” (J Med Chem, 1985).

One may read the Ki as the dissociation constant of the complex between target and ligand, obtained from inhibition or displacement. The low end stands for tighter binding, the high end for weaker binding.

Test [1] in a line: Dissociation constant against constrictor response to the compound blocked competitively by phentolamine for alpha-mediated events. The test is classed as functional.
The target in test [2] is T1, Alpha-1A adrenergic receptor (Homo sapiens) (UniProt P35348).
T1 sequence (whole entry): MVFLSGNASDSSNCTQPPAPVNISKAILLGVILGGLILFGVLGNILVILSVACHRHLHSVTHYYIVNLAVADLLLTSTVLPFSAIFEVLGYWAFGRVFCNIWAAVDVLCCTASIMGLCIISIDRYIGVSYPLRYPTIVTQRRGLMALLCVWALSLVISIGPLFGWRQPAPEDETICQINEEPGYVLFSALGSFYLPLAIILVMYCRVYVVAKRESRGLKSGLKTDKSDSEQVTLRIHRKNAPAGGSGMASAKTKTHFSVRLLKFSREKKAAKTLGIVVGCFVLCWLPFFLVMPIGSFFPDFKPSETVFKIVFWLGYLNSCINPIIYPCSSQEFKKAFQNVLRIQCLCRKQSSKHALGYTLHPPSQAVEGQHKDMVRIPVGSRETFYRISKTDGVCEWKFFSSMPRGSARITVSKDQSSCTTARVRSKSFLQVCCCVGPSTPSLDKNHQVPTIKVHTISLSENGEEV
The test is described as follows: Effect of 1 uM external [Ca2+] on the contractions induced by compound in the canine saphenous vein at EC100 concentration and expressed as percent of control response in […] Ca+; absolute concentration 5.0 X 10e-5 M. In kind it is functional, tissue-based. Conditions: Canis lupus familiaris.

The target of test [3] is T1, Alpha-1A adrenergic receptor (Homo sapiens). In words: Effect of 1 uM external [Ca2+] on the contractions induced by compound in the canine saphenous vein at EC25 concentration and expressed as percent of control response in […] Ca+; absolute concentration 1.5 +/-0.7 X 10e-7 M. The note with it: Canis lupus familiaris. In kind it is functional, tissue-based.
For test [4] the target is unchanged. The test is described as follows: Effect of 1 uM external [Ca2+] on the contractions induced by compound in the canine saphenous vein at EC50 concentration and expressed as percent of control response in […] Ca+; absolute concentration 5.0 +/- 1.5 X 10e-7 M. The test is classed as functional, tissue-based. Conditions: Canis lupus familiaris.
Test [5] has the same target. In words: Effect of zero external [Ca2+] on the contractions induced by acompound in the canine saphenous vein at EC50 concentration experimented in the presence of 2 mM EGTA and expressed as percent of control response in […] Ca+ physiological saline; abso. The test is classed as functional, tissue-based. Conditions: Canis lupus familiaris.
Test [6] has the same target. In words: Effect of zero uM external [Ca2+] on the contractions induced by compound in the canine saphenous vein at EC100 concentration experimented in the presence of 2 mM EGTA and expressed as percent of control response in […] Ca+ physiological saline; absolute concentration 5.0 X 10e-5 M. In kind it is functional, tissue-based. The note with it: Canis lupus familiaris.

The target is the same in test [7]. In words: Effect of zero external [Ca2+] on the contractions induced by compound in the canine saphenous vein in the presence of 2 mM EGTA and expressed as percent of control response in […] Ca+ physiological saline; absolute concentration 1.5 +/-0.7 X 10e-. In kind it is functional, tissue-based. Conditions: Canis lupus familiaris.

`CNCCc1ccc(O)c(NS(C)(=O)=O)c1`: the inhibitory constant (Ki) in test [1] was less than 20 nM. The Control response in test [2] came to 78.3%; in test [3] it was 8.1%; in test [4], 37.6%; in test [5] it was 20.2%; in test [6], 37.9%; in test [7] it was 6%.
